Results reported in publication PMC7388970 (The Cell Surface, 2020).
Converted amounts (≈) assume the structure as drawn.

These molecules were tested on J774 cells (assay: MTT assay for cytotoxicity). Conditions: Mus musculus, J774, 24 h, read-out: J-774 (IC50).
Assay type: cell-based

Compared with `COc1ccc(C=CC(=O)c2ccccc2)cc1OC` [Compound 1a, 3-(3,4-Dimethoxyphenyl)-1-phenylprop-2-en-1-one], `COc1ccc(C=CC(=O)c2ccccc2Cl)cc1OC` [Compound 1f, 1-(2-Chlorophenyl)-3-(3,4-dimethoxyphenyl)prop-2-en-1-one] is 4-fold lower in IC50: 50 µg/mL (≈ 186 µM) for the first, 12.5 µg/mL (≈ 41.3 µM) for the second.

First: COc1ccc(C=CC(=O)c2cccc(Br)c2)cc1OC [Compound 1b, 1-(3-Bromophenyl)-3-(3,4-dimethoxyphenyl)prop-2-en-1-one]
Second: COc1ccc(C=CC(=O)c2cccc(Cl)c2)cc1OC [Compound 1e, 1-(3-Chlorophenyl)-3-(3,4-dimethoxyphenyl)prop-2-en-1-one]
The IC50 of the first is 2-fold higher: 25 µg/mL (≈ 72 µM) for the first, 12.5 µg/mL (≈ 41.3 µM) for the second.

`COc1ccc(C=CC(=O)c2ccccc2Br)cc1OC` [Compound 1c, 1-(2-Bromophenyl)-3-(3,4-dimethoxyphenyl)prop-2-en-1-one] and `COc1ccc(C=CC(=O)c2ccccc2C)cc1OC` [Compound 1m, 3-(3,4-Dimethoxyphenyl)-1-(o-tolyl)prop-2-en-1-one] are the same in IC50: 25 µg/mL (≈ 72 µM) for the first, 25 µg/mL (≈ 88.5 µM) for the second.

First: COc1ccc(C=CC(=O)c2ccc(Br)cc2)cc1OC [Compound 1d, 1-(4-Bromophenyl)-3-(3,4-dimethoxyphenyl)prop-2-en-1-one]
Second: COc1ccc(C=CC(=O)c2ccc(Cl)cc2)cc1OC [Compound 1g, 1-(4-Chlorophenyl)-3-(3,4-dimethoxyphenyl)prop-2-en-1-one]
The IC50 of the first is 2-fold higher: 25 µg/mL (≈ 72 µM) for the first, 12.5 µg/mL (≈ 41.3 µM) for the second.

Compared with `COc1ccc(C=CC(=O)c2ccc(C)cc2)cc1OC` [Compound 1j, 3-(3,4-Dimethoxyphenyl)-1-(p-tolyl)prop-2-en-1-one], `COc1ccc(C=CC(=O)c2ccc([N+](=O)[O-])cc2)cc1OC` [Compound 1n, 3-(3,4-Dimethoxyphenyl)-1-(4-nitrophenyl)prop-2-en-1-one] is 2-fold higher in IC50: 25 µg/mL (≈ 88.5 µM) for the first, 50 µg/mL (≈ 160 µM) for the second.

`COc1ccc(C=CC(=O)c2ccc(-c3ccccc3)cc2)cc1OC` [Compound 1k, 1-([1,1'-Biphenyl]-4-yl)-3-(3,4-dimethoxyphenyl)prop-2-en-1-one] gave an IC50 of 25 µg/mL (≈ 72.6 µM).

The molecules below were run on Mycobacterium bovis BCG cells (assay: not given). Conditions: not given.
Assay type: cell-based

In the case of `COc1ccc(C=CC(=O)c2ccccc2)cc1OC` [Compound 1a, 3-(3,4-Dimethoxyphenyl)-1-phenylprop-2-en-1-one], the “proportion of cells showing morphological changes” value is reported as 76%.

Each molecule was assayed on mycolic acid biosynthesis in M. bovis BCG (assay: not given). Conditions: not given.
Assay type: cell-based, Mycobacterium bovis BCG

`COc1ccc(C=CC(=O)c2ccccc2)cc1OC` [Compound 1a, 3-(3,4-Dimethoxyphenyl)-1-phenylprop-2-en-1-one] was tested, and the FAMEs was “accumulation of FAMEs in a dose-dependent manner”.

`COc1ccc(C=CC(=O)c2ccccc2)cc1OC` [Compound 1a, 3-(3,4-Dimethoxyphenyl)-1-phenylprop-2-en-1-one] was tested, and the “production of α- and k-MAMEs” value was “dose-dependent decrease”.
